Source: patent publication US10584115B2, “Substituted pyridine and pyrazine BMI-1 inhibitors” (PTC Therapeutics, Inc., priority 2013, dated 2020)

tested on: Bmi-1 protein; test: Sandwich ELISA Assay (Bmi-1 protein level in HT-1080 cells after compound treatment); type: cell-based; conditions: Table 1, Bmi-1 sandwich ELISA, read-out: ELISA EC50 value for Bmi-1 protein
Method: Cell Seeding and Compound Treatment (Day 1):
HT-1080 cells were seeded at 8000 cells/well (50 μL) in 96-well tissue culture plates. After the cells became adherent (3-4 hours), 2× diluted stocks of test compounds in 50 μL DMEM containing 1% DMSO (final DMSO concentration was 0.5%) were added and the plates were incubated at 37° C. under 5% CO2 for 40-48 hours.
ELISA Plate First Antibody Preparation (Day 2):
The First Antibody (Millipore Mouse, monoclonal to mouse Bmi-1, clone F6, catalog #05-637) diluted to […] in PBS was added (100 μL) to each well of a Nunc MaxiSorp 96-well ELISA plate. The plate was covered with a plate seal and allowed to stand overnight.
Cell Lysate Preparation (Day 3):
Fresh Lysis buffer (1×) was prepared on the day of the assay as follows: 1 mM EDTA, 150 mM NaCl, 0.5% Triton-X 100, 10 mM NaF, 20 mM B-Glycerophosphate, 1 mM DTT (in PBS, pH 7.2-7.4) and HALT protease inhibitor cocktail (lx) (Pierce #78410).
A standard curve was prepared at the following Bmi-1 concentrations: 8000, 4000, 2000, 1000, 500, 250, 125 and 0 pg/mL. The Bmi-1 Recombinant Protein Standard (Novus Biologicals PCGF4 Recombinant Protein (P01), catalog # H00000648-P01) used to prepare the standard curve was stored at −80° C. On first thaw, the Recombinant Protein Standard was diluted to 10 μg/L in Blocking Buffer (1% BSA in PBS; BSA: Fisher Scientific Catalog #1600-100). Aliquots were taken and refrozen at −80° C. The aliquots may be kept at 4° C. and reused after first thaw, but only within 1-2 weeks. The Recombinant Protein Standard contains a GST-fusion tag that appears at approximately 70 Kda on Western Blot.
The prepared ELISA plate was washed 3× with Wash Buffer (0.05% Tween-20 in PBS). The final wash was removed from the plate and the plate was blotted dry. Blocking Buffer (300 μL) (1% BSA in PBS) was added to each well. The plate was covered with a plate seal and incubated at room temperature for 1 hour. The blocked plate was washed 3× with Wash Buffer, then the final wash was removed and the plate was blotted dry. The previously prepared samples and standards were added ([…]) and the plate was covered with a plate seal and incubated at 4° C. overnight.
The prepared ELISA plate was removed from incubation and allowed to stand at room temperature for 30 minutes, then washed and blotted dry. The Second Antibody (Cell Signaling Rabbit anti-Bmi-1, Cat #2830) diluted to 1:600 in Blocking Buffer was added (100 μL) to each well, except as needed for background control wells. The plate was covered with a plate seal and incubated for 1.5 hrs at room temperature.
The ELISA plate was washed and blotted dry as previously described. The Third Antibody (Cell Signaling HRP conjugated anti-rabbit IgG (CellSignaling, Cat #:7074) diluted to 1:300 in Blocking Buffer was added (100 μL) to each well, except as needed for background control wells. The plate was incubated for 1 hr at room temperature.
The plate was washed and blotted dry, then a previously prepared TMB substrate (TMB substrate kit, Pierce catalog #34021) (prepared by mixing kit reagents 1:1) (100 μL) was added per well. The plate was incubated for 20-30 minutes at room temperature in the dark, then Stop Solution (2 M sulfuric acid in water) (50 μL) was added per well. The plates were read at OD450 (experimental) and OD570 (reference).

Row | Compound | EC50 [nM]
1 | FC(F)(F)c1ccc(Nc2cccc(-n3c(C(F)(F)F)nc4ccccc43)n2)cc1 [Cpd 40, 6-[2-(trifluoromethyl)-1H-benzimidazol-1-yl]-N-[4-(trifluoromethyl)phenyl]pyridin-2-amine] | 100 to 3000
2 | COc1ccc2nc(C(F)(F)F)c(-c3cncc(Nc4ccc(C#N)cc4)n3)n2c1 [Cpd 49, 4-({6-[6-methoxy-2-(trifluoromethyl)imidazo[1,2-a]pyridin-3-yl]pyrazin-2-yl}amino)benzonitrile] | 100 to 3000
3 | O=[N+]([O-])c1ccc(Nc2cncc(-c3c(C(F)(F)F)nc4ccccn34)n2)cc1 [Cpd 59, N-(4-nitrophenyl)-6-[2-(trifluoromethyl)imidazo[1,2-a]pyridin-3-yl]pyrazin-2-amine] | 100 to 3000
4 | FC(F)(F)Oc1ccc(Nc2cncc(-c3c(C(F)(F)F)nc4ncccn34)n2)cc1 [Cpd 100, N-[4-(trifluoromethoxy)phenyl]-6-[2-(trifluoromethyl)imidazo[1,2-a]pyrimidin-3-yl]pyrazin-2-amine] | 100 to 3000
5 | COc1cc(Nc2ccc(C(F)(F)F)cc2)nc(-c2c(C(F)(F)F)nc3ccccn23)c1 [Cpd 107, 4-methoxy-6-[2-(trifluoromethyl)imidazo[1,2-a]pyridin-3-yl]-N-[4-(trifluoromethyl)phenyl]pyridin-2-amine] | 100 to 3000
6 | FC(F)Oc1ccc(Nc2cncc(-c3c(C(F)(F)F)nc4ncccn34)n2)cc1 [Cpd 109, N-[4-(difluoromethoxy)phenyl]-6-[2-(trifluoromethyl)imidazo[1,2-a]pyrimidin-3-yl]pyrazin-2-amine] | 10 to 100
7 | COc1cc(Nc2ccc(C(F)(F)F)cc2)nc(-c2c(C(=O)O)nc3ccccn23)c1 [Cpd 124, 3-(4-methoxy-6-{[4-(trifluoromethyl)phenyl]amino}pyridin-2-yl)imidazo[1,2-a]pyridine-2-carboxylic acid] | 10 to 100
8 | COc1cc(Nc2ccc(OC(F)F)cc2)nc(-c2c(C(F)(F)F)nc3ccccn23)c1 [Cpd 125, N-[4-(difluoromethoxy)phenyl]-4-methoxy-6-[2-(trifluoromethyl)imidazo[1,2-a]pyridin-3-yl]pyridin-2-amine] | 100 to 3000
9 | Cc1nc2ccccc2n1-c1cc(C#N)cc(Nc2ccc(OC(F)F)cc2)n1 [Cpd 135, 2-{[4-(difluoromethoxy)phenyl]amino}-6-(2-methyl-1H-benzimidazol-1-yl)pyridine-4-carbonitrile] | 10 to 100
10 | Cc1nc2ccccc2n1-c1cc(C#N)cc(Nc2ccc(OC(F)(F)F)cc2)n1 [Cpd 136, 2-(2-methyl-1H-benzimidazol-1-yl)-6-{[4-(trifluoromethoxy)phenyl]amino}pyridine-4-carbonitrile] | 10 to 100
11 | FC(F)(F)c1ccc(Nc2cncc(-c3c(C(F)(F)F)nc4ccccn34)n2)nc1 [Cpd 190, 6-[2-(trifluoromethyl)imidazo[1,2-a]pyridin-3-yl]-N-[5-(trifluoromethyl)pyridin-2-yl]pyrazin-2-amine] | 10 to 100

Results, then the compound that gave them:

Row | EC50 [nM] | Compound
12 | 10 to 100 | COc1ccc2nc(C(F)(F)F)c(-c3cncc(Nc4ccc(OC(F)(F)F)cc4)n3)n2c1 [Cpd 45, 6-[6-methoxy-2-(trifluoromethyl)imidazo[1,2-a]pyridin-3-yl]-N-[4-(trifluoromethoxy)phenyl]pyrazin-2-amine]
13 | 10 to 100 | COc1ccc2nc(C(F)(F)F)c(-c3cncc(Nc4ccc(C(F)(F)F)cc4)n3)n2c1 [Cpd 46, 6-[6-methoxy-2-(trifluoromethyl)imidazo[1,2-a]pyridin-3-yl]-N-[4-(trifluoromethyl)phenyl]pyrazin-2-amine]
14 | 1 to 10 | COc1ccc(Nc2cncc(-c3c(C(F)(F)F)nc4ccc(OC)cn34)n2)cc1 [Cpd 47, N-(4-methoxyphenyl)-6-[6-methoxy-2-(trifluoromethyl)imidazo[1,2-a]pyridin-3-yl]pyrazin-2-amine]
15 | 1 to 10 | COc1ccc2nc(C(F)(F)F)c(-c3cncc(Nc4ccc(OC(F)F)cc4)n3)n2c1 [Cpd 48, N-[4-(difluoromethoxy)phenyl]-6-[6-methoxy-2-(trifluoromethyl)imidazo[1,2-a]pyridin-3-yl]pyrazin-2-amine]
16 | 10 to 100 | N#Cc1ccc(Nc2cccc(-c3c(C(F)(F)F)nc4ccccn34)n2)cc1 [Cpd 50, 4-({6-[2-(trifluoromethyl)imidazo[1,2-a]pyridin-3-yl]pyridin-2-yl}amino)benzonitrile]
17 | 10 to 100 | Fc1ccc2nc(C(F)(F)F)c(-c3cncc(Nc4ccc(OC(F)(F)F)cc4)n3)n2c1 [Cpd 55, 6-[6-fluoro-2-(trifluoromethyl)imidazo[1,2-a]pyridin-3-yl]-N-[4-(trifluoromethoxy)phenyl]pyrazin-2-amine]
18 | 1 to 10 | Fc1ccc2nc(C(F)(F)F)c(-c3cncc(Nc4ccc(OC(F)F)cc4)n3)n2c1 [Cpd 56, N-[4-(difluoromethoxy)phenyl]-6-[6-fluoro-2-(trifluoromethyl)imidazo[1,2-a]pyridin-3-yl]pyrazin-2-amine]
19 | < 1 | COc1ccc(Nc2cncc(-c3c(C(F)(F)F)nc4ccc(F)cn34)n2)cc1 [Cpd 57, 6-[6-fluoro-2-(trifluoromethyl)imidazo[1,2-a]pyridin-3-yl]-N-(4-methoxyphenyl)pyrazin-2-amine]
20 | 1 to 10 | Fc1ccc2nc(C(F)(F)F)c(-c3cncc(Nc4ccc(C(F)(F)F)cc4)n3)n2c1 [Cpd 58, 6-[6-fluoro-2-(trifluoromethyl)imidazo[1,2-a]pyridin-3-yl]-N-[4-(trifluoromethyl)phenyl]pyrazin-2-amine]
21 | 10 to 100 | Nc1ccc(Nc2cncc(-c3c(C(F)(F)F)nc4ccccn34)n2)cc1 [Cpd 60, N-{6-[2-(trifluoromethyl)imidazo[1,2-a]pyridin-3-yl]pyrazin-2-yl}benzene-1,4-diamine]
22 | 10 to 100 | FC(F)(F)c1ccc(Nc2cncc(-c3c(C(F)(F)F)nc4ccccn34)n2)cn1 [Cpd 70, 6-[2-(trifluoromethyl)imidazo[1,2-a]pyridin-3-yl]-N-[6-(trifluoromethyl)pyridin-3-yl]pyrazin-2-amine]
23 | 1 to 10 | FC(F)(F)c1ccc(Nc2cccc(-c3c(C(F)(F)F)nc4ccccn34)n2)cn1 [Cpd 71, 6-[2-(trifluoromethyl)imidazo[1,2-a]pyridin-3-yl]-N-[6-(trifluoromethyl)pyridin-3-yl]pyridin-2-amine]
24 | 1 to 10 | COc1ncc(Nc2cncc(-c3c(C(F)(F)F)nc4ccccn34)n2)cn1 [Cpd 201, 2-methoxy-N-{6-[2-(trifluoromethyl)imidazo[1,2-a]pyridin-3-yl]pyrazin-2-yl}pyrimidin-5-amine]

same assay, conditions: read-out: ELISA EC50 value for Bmi-1 protein, Table 1, Bmi-1 sandwich ELISA

Row | Compound | EC50 [nM]
25 | COc1ccc(Nc2cc(C#N)cc(-c3c(C(F)(F)F)nc4ccccn34)n2)cc1 [Cpd 42, 2-[(4-methoxyphenyl)amino]-6-[2-(trifluoromethyl)imidazo[1,2-a]pyridin-3-yl]pyridine-4-carbonitrile] | 1 to 10
26 | FC(F)(F)c1ccc(Nc2cccc(-c3c(C(F)(F)F)nc4ncccn34)n2)cc1 [Cpd 64, 6-[2-(trifluoromethyl)imidazo[1,2-a]pyrimidin-3-yl]-N-[4-(trifluoromethyl)phenyl]pyridin-2-amine] | 10 to 100
27 | FC(F)(F)c1ccc(Nc2cncc(-c3c(C(F)(F)F)nc4ncccn34)n2)cc1 [Cpd 67, 6-[2-(trifluoromethyl)imidazo[1,2-a]pyrimidin-3-yl]-N-[4-(trifluoromethyl)phenyl]pyrazin-2-amine] | 10 to 100
28 | Cc1nc2ccccc2n1-c1cc(C#N)cc(Nc2ccc(C(F)(F)F)cc2)n1 [Cpd 132, 2-(2-methyl-1H-benzimidazol-1-yl)-6-{[4-(trifluoromethyl)phenyl]amino}pyridine-4-carbonitrile] | 10 to 100
29 | NC(=O)c1cc(Nc2ccc(C(F)(F)F)cc2)nc(-c2c(C(F)(F)F)nc3ccccn23)c1 [Cpd 189, 2-[2-(trifluoromethyl)imidazo[1,2-a]pyridin-3-yl]-6-{[4-(trifluoromethyl)phenyl]amino}pyridine-4-carboxamide] | 10 to 100
